This passage reports IC50 results from BindingDB's records for doi:10.7270/Q2154FH8 (Burnham Center For Chemical Genomics, 2010).

Intestinal-type alkaline phosphatase, sequence (P09923 whole entry): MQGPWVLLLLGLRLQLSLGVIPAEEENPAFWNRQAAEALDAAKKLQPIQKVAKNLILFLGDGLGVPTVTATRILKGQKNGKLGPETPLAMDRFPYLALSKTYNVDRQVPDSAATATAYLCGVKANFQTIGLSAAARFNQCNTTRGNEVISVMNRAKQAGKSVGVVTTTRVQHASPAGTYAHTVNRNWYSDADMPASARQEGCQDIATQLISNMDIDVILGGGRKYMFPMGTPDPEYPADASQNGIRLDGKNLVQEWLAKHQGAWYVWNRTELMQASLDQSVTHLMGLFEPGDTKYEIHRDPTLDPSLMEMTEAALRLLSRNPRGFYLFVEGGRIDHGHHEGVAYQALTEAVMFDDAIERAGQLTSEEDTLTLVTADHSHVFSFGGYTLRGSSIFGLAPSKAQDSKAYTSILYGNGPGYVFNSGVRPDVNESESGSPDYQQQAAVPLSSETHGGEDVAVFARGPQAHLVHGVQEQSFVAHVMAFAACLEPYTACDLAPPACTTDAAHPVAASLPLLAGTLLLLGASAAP

This experiment concerns the target Intestinal-type alkaline phosphatase (Homo sapiens, UniProt P09923). As to the kind of experiment: human IAP inhibitors, dose response, biochemical, luminescent, uHTS hits, set 2 (AID 488793).
`CC(N=Nc1ccccc1[N+](=O)[O-])c1ccc([N+](=O)[O-])cc1` (centres undefined) had a 50% inhibitory concentration (IC50) of 77.3 µM.
In the case of `CCOC1=CC(=Cc2c(C)[nH]oc2=O)C=C(Br)C1=O` [4-[(Z)-(3-bromo-5-ethoxy-4-oxo-1-cyclohexa-2,5-dienylidene)methyl]-3-methyl-2H-isoxazol-5-one] it was 35.8 µM; in that of `O=C(O)[C@H]1O[C@@H](Oc2c(-c3ccc(O)c(O)c3)oc3cc(O)cc(=O)c-3c2O)[C@H](O)[C@@H](O)[C@@H]1O` [quercetin glucuronide], 0.891 µM.
The compound `C=c1[nH]n(Cc2ccccc2)c(=O)c1=Cc1ccc(N(C)C)cc1` [(4Z)-4-[[4-(dimethylamino)phenyl]methylidene]-5-methyl-2-(phenylmethyl)-3-pyrazolone] displayed an IC50 of 39.4 µM.
